Our source for the activity change, negative = cytotoxicity values is PubChem BioAssay AID720588 (Broad Institute, 2013).

The structures appear in SMILES notation. Active and inactive are the calls of the source.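 How the source made its calls: active means fitted curve falls past a set limit of signal loss at no more than twice the top dose; inconclusive means flat fit between 30 and 70% signal loss, or poor fit; inactive means signal rise, flat within 30%, or crossing too high.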

One test in a line: ATP-based viability loss in HEK293T cells – cell-based, CellTiter-Glo luminescence, cherry-pick, set 3, cytotoxicity control, dose response (AID 720588). Conditions: HEK293T viability, CellTiter-Glo ATP luminescence, 72 h; at 21 µM (top of the series). For orientation: In ATP-based viability assays light output follows the ATP content of the culture.
As to `C[C@H](CO)N1C[C@H](C)[C@H](CN(C)CC2CCCCC2)Oc2ccc(NC(=O)CCCCCC(=O)Nc3ccccc3N)cc2CC1=O`, the activity change, negative = cytotoxicity is 5.04% (inactive).

Still in this test, the particulars now being: HEK293T viability, CellTiter-Glo ATP luminescence, 72 h; at 26 µM (top of the series).
`c1ccc(-c2ccc([C@H]3[C@H]4CNC[C@@H]3N4Cc3cc(-c4ccccc4)on3)cc2)cc1`: the activity change, negative = cytotoxicity is 26.6% (inactive).
As for `Cc1noc(C)c1NC(=O)Nc1ccc2c(c1)CC(=O)N([C@@H](C)CO)C[C@@H](C)[C@@H](CN(C)Cc1ccc(Cl)c(Cl)c1)O2`, the activity change, negative = cytotoxicity was 61.4% (inactive).
`C[C@@H]1CCCCO[C@@H](CN(C)C(=O)Cc2ccccc2)[C@@H](C)CN([C@@H](C)CO)C(=O)c2cc(NS(=O)(=O)c3ccc(F)cc3)ccc2O1`: the activity change, negative = cytotoxicity was 4.58% (inactive).
Turning to `S=C(NCCN1CCOCC1)Nc1ccccc1Cl`, the activity change, negative = cytotoxicity was -17.7% (inactive).
With `O=C(O)c1ccccc1C(=O)Nc1ccc(Oc2cccc3ccccc23)cc1`, the activity change, negative = cytotoxicity is -24.2% (inactive).
Still for that read-out and setting: then `C[C@H](CO)N1C[C@H](C)[C@H](CN(C)CC2CCCCC2)Oc2ccc(NC(=O)Nc3cccc4ccccc34)cc2C1=O`, with -16.8% (inactive); and `COc1ccc(N=C2C(=O)Nc3ccc(C)c(Br)c32)cc1`, with -21.9% (inactive).
For `Cc1ccsc1/C=N/Nc1cccc(C(=O)O)c1`, the activity change, negative = cytotoxicity is -23% (inactive).
With `C[C@@H]1CN([C@@H](C)CO)S(=O)(=O)c2ccc(C#CCN(C)C)cc2O[C@@H]1CN(C)Cc1ccncc1`, the activity change, negative = cytotoxicity was 52.2% (inactive).
In the case of `C[C@@H]1CN([C@H](C)CO)C(=O)CCCn2nncc2CO[C@H]1CN(C)Cc1ccc(Oc2ccccc2)cc1`, the activity change, negative = cytotoxicity was -3.49% (inactive).
On to `CCCNC(=O)[C@@H]1[C@@H](CO)[C@@H]2Cn3c(ccc(-c4ccccc4)c3=O)[C@H]1N2C(=O)CC`, for which the activity change, negative = cytotoxicity was 22.7% (inactive).
Turning to `CCNC(=O)c1cc2c(c(-c3cccc(-c4cccc(OC)c4)c3)n1)[C@H](CCO)N([S@@](=O)C(C)(C)C)C2`, the activity change, negative = cytotoxicity is -17.3% (inactive).
For the molecule `COCCOC(=O)N1C(=O)[C@@]2(c3cc(C#CCC(C(=O)OC)C(=O)OC)ccc31)[C@H](c1ccccc1OCCO)N1[C@H](c3ccccc3)[C@H](c3ccccc3)OC(=O)[C@H]1[C@@H]2C(=O)N1CCN(c2ncccn2)CC1`, the activity change, negative = cytotoxicity was 28.9% (inactive).
With `COc1ccc(CN(C)c2ncnc3sccc23)c(OC)c1OC`, the activity change, negative = cytotoxicity is -29.1% (inactive).
For the molecule `Cc1ccc(C(CC(=O)O)Nc2nc(N3CCOCC3)nc(N3CCOCC3)n2)cc1` (stereo not given), the activity change, negative = cytotoxicity is 25.6% (inactive).
On to `COc1cccc(CN2CCC2(C)C(=O)Nc2cccc3cccnc23)c1F` (stereo not given), for which the activity change, negative = cytotoxicity was -6.02% (inactive).
In the case of `CCCNC(=O)N1[C@H](C#N)[C@H](c2ccc(C#Cc3ccc(F)cc3)cc2)[C@H]1CO`, the activity change, negative = cytotoxicity is 14.3% (inactive).
`O=C(C[C@@H]1C[C@H]2c3cc(NC(=O)CC4CC4)ccc3O[C@H]2[C@H](CO)O1)NCc1ccccc1F`: the activity change, negative = cytotoxicity was 13.3% (inactive).
For the molecule `COC(=O)C[C@@H]1CC[C@@H]2[C@@H](COc3ccc(NC(=O)Cc4cccs4)cc3C(=O)N2C)O1`, the activity change, negative = cytotoxicity is -8.47% (inactive).
Same read-out and setting: for `C[C@@H]1CN([C@@H](C)CO)C(=O)Cc2cc(NS(=O)(=O)c3cccs3)ccc2O[C@H]1CN(C)Cc1ccc(Cl)c(Cl)c1` the value was -34.4% (inactive); for `Cc1ccc(/C=C2\SC(=S)N(CCCC(=O)NNC(=O)c3ccccc3O)C2=O)cc1`, -14.6% (inactive).
Same read-out and setting: then `Cc1c(CC(=O)NCCCC(=O)O)c(=O)oc2cc3c(cc12)CCC(C)(C)O3`, with -63.2% (inactive); and `Cc1c(Cl)cnc(NC(=O)COC(=O)c2ccc3ncsc3c2)c1Cl`, with 13.6% (inactive); and `CN(C)C(=O)c1ccc(-c2ccccc2[C@@H]2[C@@H](CO)N(C(=O)C3CC3)[C@H]2C#N)cc1`, with 13.4% (inactive).
